Data from the kinase profiling compilation of Christmann-Franck et al. (2016).

Tests used:
PI4KA (human) = PI4KA (human) (UniProt P42356)
PIK3C2A (human) = PIK3C2A (human) (UniProt O00443)
PIK3C2B (human) = PIK3C2B (human) (UniProt O00750)
PI4KB (human) = PI4KB (human) (UniProt Q9UBF8)
PIK3C3 (human) = PIK3C3 (human) (UniProt Q8NEB9)
FRK (human) = FRK (human) (UniProt P42685); test: KINOMEscan competition binding; settings: compound 10.0 µM
[1] = tested on: EGFR (human), P00533 [T790M]; test: KINOMEscan competition binding; settings: compound 10.0 µM
RIPK2 (human) = RIPK2 (human) (UniProt O43353); test: KINOMEscan competition binding; settings: compound 10.0 µM
PKMYT1 (human) = PKMYT1 (human) (UniProt Q99640); test: KINOMEscan competition binding; settings: compound 10.0 µM
DYRK1B (human) = DYRK1B (human) (UniProt Q9Y463); test: KINOMEscan competition binding; settings: compound 10.0 µM
DDR2 (human) = DDR2 (human) (UniProt Q16832); test: KINOMEscan competition binding; settings: compound 10.0 µM
EPHA4 (human) = EPHA4 (human) (UniProt P54764); test: KINOMEscan competition binding; settings: compound 10.0 µM
HIPK3 (human) = HIPK3 (human) (UniProt Q9H422); test: KINOMEscan competition binding; settings: compound 10.0 µM
PRKCZ (human) = PRKCZ (human) (UniProt Q05513)
CSK (human) = CSK (human) (UniProt P41240)
[2] = tested on: SGK1 (human), O00141 [S422D]
Chain of SGK1 (human), O00141 [S422D] (O00141 whole entry S422D, looked up): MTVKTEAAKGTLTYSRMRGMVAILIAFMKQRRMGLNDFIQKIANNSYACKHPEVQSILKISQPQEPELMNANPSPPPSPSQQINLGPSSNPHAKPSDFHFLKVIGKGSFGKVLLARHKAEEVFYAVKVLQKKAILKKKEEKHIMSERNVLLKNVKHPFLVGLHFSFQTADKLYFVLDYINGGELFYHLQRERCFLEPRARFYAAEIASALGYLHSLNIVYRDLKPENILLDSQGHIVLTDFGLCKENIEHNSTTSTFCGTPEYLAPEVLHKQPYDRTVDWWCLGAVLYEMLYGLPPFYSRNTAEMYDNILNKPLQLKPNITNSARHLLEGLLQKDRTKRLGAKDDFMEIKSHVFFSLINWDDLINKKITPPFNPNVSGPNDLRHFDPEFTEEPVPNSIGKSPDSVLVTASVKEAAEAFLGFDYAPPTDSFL

PRKCA (human) = PRKCA (human) (UniProt P17252)
YES1 (human) = YES1 (human) (UniProt P07947)
MAPK13 (human) = MAPK13 (human) (UniProt O15264)
CaMK1 (human) = CaMK1 (human) (UniProt Q14012)
Chain of CaMK1 (human) (Q14012 whole entry, looked up): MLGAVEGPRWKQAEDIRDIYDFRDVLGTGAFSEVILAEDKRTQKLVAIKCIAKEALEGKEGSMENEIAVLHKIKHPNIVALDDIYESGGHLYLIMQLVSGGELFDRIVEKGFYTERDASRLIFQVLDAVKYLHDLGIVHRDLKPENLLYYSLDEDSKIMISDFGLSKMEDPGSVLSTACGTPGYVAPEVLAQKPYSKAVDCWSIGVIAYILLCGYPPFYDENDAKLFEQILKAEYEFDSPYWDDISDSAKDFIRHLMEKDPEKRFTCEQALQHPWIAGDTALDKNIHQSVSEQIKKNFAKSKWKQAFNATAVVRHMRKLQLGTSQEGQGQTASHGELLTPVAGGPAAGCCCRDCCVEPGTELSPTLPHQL

PAK4 (human) = PAK4 (human) (UniProt O96013)
CAMKK2 (human) = CAMKK2 (human) (UniProt Q96RR4)
Chain of CAMKK2 (human) (Q96RR4 whole entry, looked up): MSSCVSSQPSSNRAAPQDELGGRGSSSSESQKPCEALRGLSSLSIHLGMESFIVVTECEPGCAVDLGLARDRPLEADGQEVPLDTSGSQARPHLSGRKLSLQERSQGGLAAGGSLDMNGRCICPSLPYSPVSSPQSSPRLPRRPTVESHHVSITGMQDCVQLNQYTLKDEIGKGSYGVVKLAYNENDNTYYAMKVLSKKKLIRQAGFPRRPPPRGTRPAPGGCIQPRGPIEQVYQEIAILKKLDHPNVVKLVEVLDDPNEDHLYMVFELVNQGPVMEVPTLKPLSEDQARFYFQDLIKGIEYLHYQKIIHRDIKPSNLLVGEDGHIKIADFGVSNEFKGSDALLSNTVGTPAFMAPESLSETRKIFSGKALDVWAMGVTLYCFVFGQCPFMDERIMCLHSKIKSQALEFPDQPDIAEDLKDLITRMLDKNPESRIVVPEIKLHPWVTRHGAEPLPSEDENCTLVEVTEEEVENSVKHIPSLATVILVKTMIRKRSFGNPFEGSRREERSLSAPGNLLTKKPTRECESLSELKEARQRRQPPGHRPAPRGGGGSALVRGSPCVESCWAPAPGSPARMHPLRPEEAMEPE

RPS6KA1 KD1 KD2 (human) = RPS6KA1 KD1 KD2 (human) (UniProt Q15418)
CHEK1 (human) = CHEK1 (human) (UniProt O14757)
Chain of CHEK1 (human) (O14757 whole entry, looked up): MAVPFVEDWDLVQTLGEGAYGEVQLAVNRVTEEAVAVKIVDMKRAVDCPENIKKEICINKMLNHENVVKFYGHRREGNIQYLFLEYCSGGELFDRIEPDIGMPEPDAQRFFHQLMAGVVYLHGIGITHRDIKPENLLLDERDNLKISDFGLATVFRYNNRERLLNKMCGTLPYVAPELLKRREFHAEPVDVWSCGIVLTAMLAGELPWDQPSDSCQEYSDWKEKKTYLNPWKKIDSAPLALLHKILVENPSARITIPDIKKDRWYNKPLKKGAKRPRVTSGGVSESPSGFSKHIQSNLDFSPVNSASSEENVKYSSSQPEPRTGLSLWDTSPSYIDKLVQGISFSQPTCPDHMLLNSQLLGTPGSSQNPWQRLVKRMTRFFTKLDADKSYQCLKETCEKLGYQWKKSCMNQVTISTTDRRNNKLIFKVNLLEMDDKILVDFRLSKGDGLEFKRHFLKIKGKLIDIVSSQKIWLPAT

PIM2 (human) = PIM2 (human) (UniProt Q9P1W9)
Chain of PIM2 (human) (Q9P1W9 whole entry, looked up): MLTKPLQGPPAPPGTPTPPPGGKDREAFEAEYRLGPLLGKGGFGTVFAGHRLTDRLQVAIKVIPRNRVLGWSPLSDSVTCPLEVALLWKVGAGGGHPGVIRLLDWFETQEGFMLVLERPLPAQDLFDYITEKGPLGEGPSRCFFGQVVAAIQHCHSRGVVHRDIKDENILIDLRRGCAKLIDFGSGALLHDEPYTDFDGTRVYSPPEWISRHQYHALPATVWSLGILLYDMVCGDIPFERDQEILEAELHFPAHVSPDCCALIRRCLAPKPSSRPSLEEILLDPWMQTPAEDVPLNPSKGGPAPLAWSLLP

CSNK2A1 (human) = CSNK2A1 (human) (UniProt P68400)
PLK1 (human) = PLK1 (human) (UniProt P53350)
Chain of PLK1 (human) (P53350 whole entry, looked up): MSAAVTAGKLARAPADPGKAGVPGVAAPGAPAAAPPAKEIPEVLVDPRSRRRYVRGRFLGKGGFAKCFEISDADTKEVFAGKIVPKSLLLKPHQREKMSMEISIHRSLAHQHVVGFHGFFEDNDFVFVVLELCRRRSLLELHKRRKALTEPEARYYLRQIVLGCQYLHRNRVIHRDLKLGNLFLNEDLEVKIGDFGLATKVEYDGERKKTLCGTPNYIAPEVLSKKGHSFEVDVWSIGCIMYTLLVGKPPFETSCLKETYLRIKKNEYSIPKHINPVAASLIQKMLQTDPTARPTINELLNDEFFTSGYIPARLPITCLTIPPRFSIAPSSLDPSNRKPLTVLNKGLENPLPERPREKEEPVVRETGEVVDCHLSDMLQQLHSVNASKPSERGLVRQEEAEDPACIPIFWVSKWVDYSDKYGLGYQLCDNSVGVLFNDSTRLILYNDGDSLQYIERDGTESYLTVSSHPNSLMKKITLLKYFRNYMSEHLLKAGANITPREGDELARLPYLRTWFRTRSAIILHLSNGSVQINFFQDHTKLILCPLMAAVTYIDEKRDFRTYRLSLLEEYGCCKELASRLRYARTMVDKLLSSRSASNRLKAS

ROCK2 (rat) = settings: accession and sequence are those of the human protein
[3] = tested on: RPS6KB1 (human), P23443 [T412E]
Chain of RPS6KB1 (human), P23443 [T412E] (P23443 whole entry T412E, looked up): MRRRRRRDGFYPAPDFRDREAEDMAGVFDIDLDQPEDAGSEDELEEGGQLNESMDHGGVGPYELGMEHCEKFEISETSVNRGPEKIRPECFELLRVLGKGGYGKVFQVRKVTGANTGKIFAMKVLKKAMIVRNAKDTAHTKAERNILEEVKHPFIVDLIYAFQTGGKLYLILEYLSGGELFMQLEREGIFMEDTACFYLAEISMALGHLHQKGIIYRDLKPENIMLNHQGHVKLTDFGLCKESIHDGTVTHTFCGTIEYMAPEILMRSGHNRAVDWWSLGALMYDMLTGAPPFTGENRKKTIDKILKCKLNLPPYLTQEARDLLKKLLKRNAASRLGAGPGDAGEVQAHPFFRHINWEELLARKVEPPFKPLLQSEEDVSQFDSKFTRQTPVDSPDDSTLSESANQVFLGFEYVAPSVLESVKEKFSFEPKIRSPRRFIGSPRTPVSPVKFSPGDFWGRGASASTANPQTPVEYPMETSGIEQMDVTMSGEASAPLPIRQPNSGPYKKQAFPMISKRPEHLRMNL

SRPK1 (human) = SRPK1 (human) (UniProt Q96SB4)
MAPK12 (human) = MAPK12 (human) (UniProt P53778)
Chain of MAPK12 (human) (P53778 whole entry, looked up): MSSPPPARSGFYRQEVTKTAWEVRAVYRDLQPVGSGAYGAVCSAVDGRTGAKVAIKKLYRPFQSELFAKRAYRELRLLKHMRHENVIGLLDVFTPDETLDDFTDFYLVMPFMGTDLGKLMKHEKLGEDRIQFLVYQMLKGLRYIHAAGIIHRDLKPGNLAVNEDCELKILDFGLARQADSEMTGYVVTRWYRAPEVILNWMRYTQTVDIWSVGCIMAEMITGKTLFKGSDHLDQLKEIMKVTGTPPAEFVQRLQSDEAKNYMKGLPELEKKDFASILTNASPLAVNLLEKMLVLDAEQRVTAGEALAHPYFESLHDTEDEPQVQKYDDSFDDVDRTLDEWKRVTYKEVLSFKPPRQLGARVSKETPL

MAPKAPK2 (human) = MAPKAPK2 (human) (UniProt P49137)
Chain of MAPKAPK2 (human) (P49137 whole entry, looked up): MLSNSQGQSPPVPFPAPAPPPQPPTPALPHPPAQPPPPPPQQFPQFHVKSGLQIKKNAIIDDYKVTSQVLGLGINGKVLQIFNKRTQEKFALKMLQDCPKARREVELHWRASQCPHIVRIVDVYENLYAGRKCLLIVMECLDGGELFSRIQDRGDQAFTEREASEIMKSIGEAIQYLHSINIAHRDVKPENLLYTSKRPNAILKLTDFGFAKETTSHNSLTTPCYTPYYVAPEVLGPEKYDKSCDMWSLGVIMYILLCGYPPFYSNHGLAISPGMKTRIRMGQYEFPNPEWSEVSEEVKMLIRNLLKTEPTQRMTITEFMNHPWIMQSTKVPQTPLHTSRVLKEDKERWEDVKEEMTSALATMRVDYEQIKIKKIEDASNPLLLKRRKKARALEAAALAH

PAK6 (human) = PAK6 (human) (UniProt Q9NQU5)
Chain of PAK6 (human) (Q9NQU5 whole entry, looked up): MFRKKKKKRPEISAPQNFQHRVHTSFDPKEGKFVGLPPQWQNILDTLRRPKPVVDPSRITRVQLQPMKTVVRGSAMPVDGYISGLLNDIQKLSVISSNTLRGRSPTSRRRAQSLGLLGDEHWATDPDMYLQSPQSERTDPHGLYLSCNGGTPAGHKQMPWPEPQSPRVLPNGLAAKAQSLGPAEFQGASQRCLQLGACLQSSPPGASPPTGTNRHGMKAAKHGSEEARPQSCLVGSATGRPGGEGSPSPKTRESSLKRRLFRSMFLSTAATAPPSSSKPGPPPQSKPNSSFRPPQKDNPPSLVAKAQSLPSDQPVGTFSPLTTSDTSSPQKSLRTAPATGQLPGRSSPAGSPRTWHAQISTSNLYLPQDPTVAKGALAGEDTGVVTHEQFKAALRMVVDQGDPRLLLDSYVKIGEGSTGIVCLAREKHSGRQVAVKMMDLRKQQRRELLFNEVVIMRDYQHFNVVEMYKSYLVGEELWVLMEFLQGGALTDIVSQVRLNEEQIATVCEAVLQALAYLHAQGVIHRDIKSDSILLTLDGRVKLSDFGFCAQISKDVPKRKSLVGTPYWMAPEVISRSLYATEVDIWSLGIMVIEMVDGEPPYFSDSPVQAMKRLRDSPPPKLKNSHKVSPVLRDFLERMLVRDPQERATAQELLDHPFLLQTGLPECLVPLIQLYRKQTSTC

STK3 (human) = STK3 (human) (UniProt Q13188)
EEF2K (human) = EEF2K (human) (UniProt O00418)
AURKB (human) = AURKB (human) (UniProt Q96GD4); settings: compound 10.0 µM

## COc1ccc(-c2ccc3c(N4CCOCC4)nc(N4C[C@@H](C)O[C@@H](C)C4)nc3n2)cc1CO
PI4KA (human)
  IC50: > 10 µM
PIK3C2A (human)
  IC50: > 10 µM
PIK3C2B (human)
  IC50: > 10 µM
PI4KB (human)
  IC50: > 10 µM
PIK3C3 (human)
  IC50: > 10 µM
FRK (human)
  kinase still bound, per cent of control: 100%
[1]
  kinase still bound, per cent of control: 100%
RIPK2 (human)
  kinase still bound, per cent of control: 100%
PKMYT1 (human)
  kinase still bound, per cent of control: 84%
DYRK1B (human)
  kinase still bound, per cent of control: 85%
DDR2 (human)
  kinase still bound, per cent of control: 100%
EPHA4 (human)
  kinase still bound, per cent of control: 100%
HIPK3 (human)
  kinase still bound, per cent of control: 76%
PRKCZ (human); compound 1.0 µM
  per cent of control: 87%
PRKCZ (human); compound 10.0 µM
  per cent of control: 84%
CSK (human); compound 1.0 µM
  per cent of control: 90%
CSK (human); compound 10.0 µM
  per cent of control: 99%
[2]; compound 1.0 µM
  per cent of control: 76%
[2]; compound 10.0 µM
  per cent of control: 64%
PRKCA (human); compound 1.0 µM
  per cent of control: 106%
PRKCA (human); compound 10.0 µM
  per cent of control: 86%
YES1 (human); compound 1.0 µM
  per cent of control: 94%
YES1 (human); compound 10.0 µM
  per cent of control: 90%
MAPK13 (human); compound 1.0 µM
  per cent of control: 72%
MAPK13 (human); compound 10.0 µM
  per cent of control: 87%
CaMK1 (human); compound 1.0 µM
  per cent of control: 96%
CaMK1 (human); compound 10.0 µM
  per cent of control: 101%
PAK4 (human); compound 1.0 µM
  per cent of control: 11%
PAK4 (human); compound 10.0 µM
  per cent of control: 75%
CAMKK2 (human); compound 1.0 µM
  per cent of control: 108%
CAMKK2 (human); compound 10.0 µM
  per cent of control: 94%
RPS6KA1 KD1 KD2 (human); compound 1.0 µM
  per cent of control: 100%
RPS6KA1 KD1 KD2 (human); compound 10.0 µM
  per cent of control: 86%
CHEK1 (human); compound 1.0 µM
  per cent of control: 87%
CHEK1 (human); compound 10.0 µM
  per cent of control: 86%
PIM2 (human); compound 1.0 µM
  per cent of control: 86%
PIM2 (human); compound 10.0 µM
  per cent of control: 78%
CSNK2A1 (human); compound 1.0 µM
  per cent of control: 104%
CSNK2A1 (human); compound 10.0 µM
  per cent of control: 85%
PLK1 (human); compound 1.0 µM
  per cent of control: 76%
PLK1 (human); compound 10.0 µM
  per cent of control: 94%
ROCK2 (rat); compound 1.0 µM
  per cent of control: 75%
ROCK2 (rat); compound 10.0 µM
  per cent of control: 86%
[3]; compound 1.0 µM
  per cent of control: 104%
[3]; compound 10.0 µM
  per cent of control: 98%
SRPK1 (human); compound 1.0 µM
  per cent of control: 101%
SRPK1 (human); compound 10.0 µM
  per cent of control: 94%
MAPK12 (human); compound 1.0 µM
  per cent of control: 89%
MAPK12 (human); compound 10.0 µM
  per cent of control: 91%
MAPKAPK2 (human); compound 1.0 µM
  per cent of control: 98%
MAPKAPK2 (human); compound 10.0 µM
  per cent of control: 81%
PAK6 (human); compound 1.0 µM
  per cent of control: 75%
PAK6 (human); compound 10.0 µM
  per cent of control: 100%
STK3 (human); compound 1.0 µM
  per cent of control: 81%
STK3 (human); compound 10.0 µM
  per cent of control: 102%
EEF2K (human); compound 1.0 µM
  per cent of control: 88%
EEF2K (human); compound 10.0 µM
  per cent of control: 108%
AURKB (human)
  per cent of control: 86%
